One assay has as its target T1, BRAF G466V (Homo sapiens, UniProt P15056, G466V).
T1 construct: expressed in transfected cells
The experiment in a line: Cellular assay of target protein degradation, T-Rex 293 cells stably transfected with HA-BRAF G466V (HA immunofluorescence, high content imaging). The format is cell-based. The method, boiled down: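 Dose range spans 30 nM to 3 pM (0.1% DMSO) over 24 hours at 37° C, in cells induced with 0.75 ng/mL doxycycline. Fixed cells are probed with anti-HA antibody overnight at 4° C, then imaged; half-maximal degradation and maximum degradation are derived.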

Another assay addresses T2, BRAF V600E (Homo sapiens, UniProt P15056, V600E).
T2 construct: expressed in transfected cells
Put plainly: Cellular assay of target protein degradation, T-Rex 293 cells stably transfected with HA-BRAF_V600E (HA immunofluorescence, high content imaging). The format is cell-based. The procedure, abridged:
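Degradation of the HA-tagged construct is measured after 24 h treatment at 37 °C across 1 μM to 0.1 nM in 0.1% DMSO, in doxycycline-induced (1 ng/mL) cells. DC50 and Dmax come from HA fluorescence imaging.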

Setting [1] is: half maximal degradation, T-Rex 293 HA-BRAF G466V; read-out: BRaf G466V DC50.
The mark [2] stands for this setting: maximum degradation observed, T-Rex 293 HA-BRAF G466V.
[3] abbreviates: half maximal degradation, T-Rex 293 HA-BRAF V600E; read-out: BRaf V600E DC50.
Setting [4] is: maximum degradation observed, T-Rex 293 HA-BRAF V600E.

We go through twelve molecules from patent publication US12180193B2, “Accelerating fibrosarcoma protein degrading compounds and associated methods of use” (Arvinas Operations, Inc., priority 2020, dated 2024).

As usually defined, the DC50 is the midpoint of the concentration-degradation curve. The Dmax is the largest share of the target that was removed.

Read-outs that look alike come from different tables or passages of the source.

T2 sequence (P15056 whole entry V600E): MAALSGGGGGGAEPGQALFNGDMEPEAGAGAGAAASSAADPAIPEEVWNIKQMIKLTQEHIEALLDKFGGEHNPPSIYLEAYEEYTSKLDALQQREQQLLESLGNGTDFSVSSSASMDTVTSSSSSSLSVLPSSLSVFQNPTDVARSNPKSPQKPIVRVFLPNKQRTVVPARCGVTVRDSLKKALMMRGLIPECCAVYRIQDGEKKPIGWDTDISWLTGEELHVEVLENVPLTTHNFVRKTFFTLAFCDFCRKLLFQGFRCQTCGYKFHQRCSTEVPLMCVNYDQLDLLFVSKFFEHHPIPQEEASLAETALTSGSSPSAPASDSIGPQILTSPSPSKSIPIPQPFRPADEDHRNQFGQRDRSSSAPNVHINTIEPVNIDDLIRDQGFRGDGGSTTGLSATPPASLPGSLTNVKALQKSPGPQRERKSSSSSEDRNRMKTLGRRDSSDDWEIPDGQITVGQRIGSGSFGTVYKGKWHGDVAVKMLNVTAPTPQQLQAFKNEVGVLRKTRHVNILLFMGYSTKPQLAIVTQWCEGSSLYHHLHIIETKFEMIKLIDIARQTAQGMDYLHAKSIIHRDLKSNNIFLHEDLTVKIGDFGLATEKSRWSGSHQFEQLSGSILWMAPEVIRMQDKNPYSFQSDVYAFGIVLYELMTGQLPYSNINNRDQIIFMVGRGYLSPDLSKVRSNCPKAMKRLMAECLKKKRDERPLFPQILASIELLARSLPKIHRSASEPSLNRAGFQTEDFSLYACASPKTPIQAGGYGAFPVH
T1 sequence (P15056 whole entry G466V): as the sequence (P15056 whole entry V600E) above, with G466V, E600V counted along it

As to `O=C1CCC(N2Cc3cc(C4CCN(CC5CCN(c6ccc(-c7cnc8[nH]cc(C(=O)c9c(F)ccc(NS(=O)(=O)N%10CCCC%10)c9F)c8c7)cc6)CC5)CC4)ccc3C2=O)C(=O)N1` (centres unmarked) [Compound 177, N-[3-(5-{4-[4-({4-[2-(2,6-dioxopiperidin-3-yl)-1-oxo-2,3-dihydro-1H-isoindol-5-yl]piperidin-1-yl}methyl)piperidin-1-yl]phenyl}-1H-pyrrolo[2,3-b]pyridine-3-carbonyl)-2,4-difluorophenyl]pyrrolidine-1-sulfonamide], the half-maximal degradation concentration (DC50) is below 0.001 µM at BRAF G466V (setting [1]) and below 0.005 µM at BRAF V600E (setting [3]). Also, the Dmax on BRAF G466V (setting [2]) was above 70%; on BRAF V600E (setting [4]), 35 to 70%.
Consider `O=C1CCC(c2ccc(C3CCN(CCC4CCN(c5ccc(-c6cnc7[nH]cc(C(=O)c8c(F)ccc(NS(=O)(=O)N9CC[C@@H](F)C9)c8F)c7c6)cc5)CC4)CC3)cc2F)C(=O)N1` (stereo partly drawn) [Compound 178, (3R)-N-[3-(5-{4-[4-(2-{4-[4-(2,6-dioxopiperidin-3-yl)-3-fluorophenyl]piperidin-1-yl}ethyl)piperidin-1-yl]phenyl}-1H-pyrrolo[2,3-b]pyridine-3-carbonyl)-2,4-difluorophenyl]-3-fluoropyrrolidine-1-sulfonamide], for which the 50% degradation concentration (DC50) was in the range of 0.001 to 0.01 µM at BRAF G466V (setting [1]) and 0.005 to 0.05 µM at BRAF V600E (setting [3]). Besides, the Dmax at BRAF G466V (setting [2]) was above 70%; at BRAF V600E (setting [4]), below 35%.
In the same order, the values of `O=C1CCC(N2Cc3cc(C4CCN(C[C@@H]5[C@H]6CN(c7ccc(-c8cnc9[nH]cc(C(=O)c%10c(F)ccc(NS(=O)(=O)N%11CC[C@@H](F)C%11)c%10F)c9c8)cc7)C[C@@H]56)CC4)ccc3C2=O)C(=O)N1` (stereo partly drawn) [Compound 179, (3R)-N-[3-(5-{4-[(1R,5S,6S)-6-({4-[2-(2,6-dioxopiperidin-3-yl)-1-oxo-2,3-dihydro-1H-isoindol-5-yl]piperidin-1-yl}methyl)-3-azabicyclo[3.1.0]hexan-3-yl]phenyl}-1H-pyrrolo[2,3-b]pyridine-3-carbonyl)-2,4-difluorophenyl]-3-fluoropyrrolidine-1-sulfonamide] are 0.001 to 0.01 µM, 0.005 to 0.05 µM, above 70% and 35 to 70%.
For `O=C1CCC(N2Cc3cc(C4CCN(C[C@@H]5C[C@H]6CC[C@@H](C5)N6c5ccc(-c6cnc7[nH]cc(C(=O)c8c(F)ccc(NS(=O)(=O)N9CC[C@@H](F)C9)c8F)c7c6)cc5)CC4)ccc3C2=O)C(=O)N1` (stereo partly drawn) [Compound 180, (3R)-N-[3-(5-{4-[(1R,3S,5S)-3-({4-[2-(2,6-dioxopiperidin-3-yl)-1-oxo-2,3-dihydro-1H-isoindol-5-yl]piperidin-1-yl}methyl)-8-azabicyclo[3.2.1]octan-8-yl]phenyl}-1H-pyrrolo[2,3-b]pyridine-3-carbonyl)-2,4-difluorophenyl]-3-fluoropyrrolidine-1-sulfonamide], the values for the DC50 on BRAF G466V (setting [1]) and at BRAF V600E (setting [3]) were 0.001 to 0.01 µM and 0.005 to 0.05 µM, respectively. The maximal degradation (Dmax) is above 70% on BRAF G466V (setting [2]) and 35 to 70% at BRAF V600E (setting [4]).
For `O=C1CCC(N2Cc3cc(N4CCC(CC5CCN(c6ccc(-c7cnc8[nH]cc(C(=O)c9c(F)ccc(NS(=O)(=O)N%10CC[C@@H](F)C%10)c9F)c8c7)cc6)CC5)CC4)ccc3C2=O)C(=O)N1` (stereo partly drawn) [Compound 181, (3R)-N-[3-(5-{4-[4-({1-[2-(2,6-dioxopiperidin-3-yl)-1-oxo-2,3-dihydro-1H-isoindol-5-yl]piperidin-4-yl}methyl)piperidin-1-yl]phenyl}-1H-pyrrolo[2,3-b]pyridine-3-carbonyl)-2,4-difluorophenyl]-3-fluoropyrrolidine-1-sulfonamide], the greatest degradation seen (Dmax) was 35 to 70% at BRAF G466V (setting [2]) and below 35% on BRAF V600E (setting [4]). For the same molecule, the 50% degradation concentration (DC50) at BRAF G466V (read-out: BRaf G466V DC50; half maximal degradation, T-Rex 293 HA-BRAF G466V) was 0.01 to 0.03 µM; at BRAF V600E (read-out: BRaf V600E DC50; half maximal degradation, T-Rex 293 HA-BRAF V600E) it was 0.05 to 0.5 µM.
As for `CN(CCN1CCN(c2ccc3c(c2)CN(C2CCC(=O)NC2=O)C3=O)CC1)[C@H]1C[C@@H](Oc2ccc(-c3cnc4[nH]cc(C(=O)c5c(F)ccc(NS(=O)(=O)N6CC[C@@H](F)C6)c5F)c4c3)cc2)C1` (stereo partly drawn) [Compound 182, (3R)-N-[2,4-difluoro-3-(5-{4-[(1s,3s)-3-[(2-{4-[2-(2,6-dioxopiperidin-3-yl)-1-oxo-2,3-dihydro-1H-isoindol-5-yl]piperazin-1-yl}ethyl)(methyl)amino]cyclobutoxy)phe-nyl}-1H-pyrrolo[2,3-b]pyridine-3-carbonyl)phenyl]-3-fluoropyrrolidine-1-sulfonamide], the DC50 on BRAF G466V (setting [1]) is 0.001 to 0.01 µM; on BRAF V600E (setting [3]) it was 0.05 to 0.5 µM. For the same molecule, the greatest degradation seen (Dmax) at BRAF G466V (setting [2]) is above 70%; at BRAF V600E (setting [4]), 35 to 70%.
On to `CC1(N2Cc3cc(C4CCN(CC5CCN(c6ccc(-c7cnc8[nH]cc(C(=O)c9c(F)ccc(NS(=O)(=O)N%10CC[C@@H](F)C%10)c9F)c8c7)cc6)CC5)CC4)ccc3C2=O)CCC(=O)NC1=O` (stereo partly drawn) [Compound 183, (3R)-N-[2,4-difluoro-3-(5-{4-[4-({4-[2-(3-methyl-2,6-dioxopiperidin-3-yl)-1-oxo-2,3-dihydro-1H-isoindol-5-yl]piperidin-1-yl}methyl)piperidin-1-yl]phenyl}-1H-pyrrolo[2,3-b]pyridine-3-carbonyl)phenyl]-3-fluoropyrrolidine-1-sulfonamide], for which the DC50 at BRAF G466V (setting [1]) is above 0.03 µM; on BRAF V600E (setting [3]), 0.05 to 0.5 µM. The molecule further had a Dmax on BRAF V600E (setting [4]) below 35%.
With `COc1cc(C2CCN(CC3CCN(c4ccc(-c5cnc6[nH]cc(C(=O)c7c(F)ccc(NS(=O)(=O)N8CC[C@@H](F)C8)c7F)c6c5)cc4)CC3)CC2)ccc1C(=O)NC1CCC(=O)NC1=O` (stereo partly drawn) [Compound 184, 4-(1-{[1-(4-{3-[2,6-difluoro-3-({[(3R)-3-fluoropyrrolidin-1-yl]sulfonyl}amino)benzoyl]-1H-pyrrolo[2,3-b]pyridin-5-yl}phenyl)piperidin-4-yl]methyl}piperidin-4-yl)-N-(2,6-dioxopiperidin-3-yl)-2-methoxybenzamide], the 50% degradation concentration (DC50) on BRAF G466V (setting [1]) is 0.001 to 0.01 µM; at BRAF V600E (setting [3]) it was 0.005 to 0.05 µM. Further, the figures for the maximal degradation (Dmax) at BRAF G466V (setting [2]) and on BRAF V600E (setting [4]) were 35 to 70% and below 35%, respectively.
Regarding `O=C1CCC(N2Cc3ccc(C4CCN(CC5CCN(c6ccc(-c7cnc8[nH]cc(C(=O)c9c(F)ccc(NS(=O)(=O)N%10CC[C@@H](F)C%10)c9F)c8c7)cc6)CC5)CC4)cc3C2=O)C(=O)N1` (stereo partly drawn) [Compound 185, (3R)-N-[3-(5-{4-[4-({4-[2-(2,6-dioxopiperidin-3-yl)-3-oxo-2,3-dihydro-1H-isoindol-5-yl]piperidin-1-yl}methyl)piperidin-1-yl]phenyl}-1H-pyrrolo[2,3-b]pyridine-3-carbonyl)-2,4-difluorophenyl]-3-fluoropyrrolidine-1-sulfonamide], the half-maximal degradation concentration (DC50) on BRAF G466V (setting [1]) is 0.001 to 0.01 µM; at BRAF V600E (setting [3]), 0.005 to 0.05 µM. Further, the figures for the Dmax on BRAF G466V (setting [2]) and at BRAF V600E (setting [4]) were above 70% and below 35%, respectively.
In the case of `COc1cc([C@H](O)CCN2CCN(c3ccc(-c4cnc5[nH]cc(C(=O)c6c(F)ccc(NS(=O)(=O)N7CC[C@@H](F)C7)c6F)c5c4)cc3)CC2)cc2c1C(=O)N([C@H]1CCC(=O)NC1=O)C2` [Compound 186, (3R)-N-{3-[5-(4-{4-[(3R)-3-{2-[(3S)-2,6-dioxopiperidin-3-yl]-7-methoxy-1-oxo-2,3-dihydro-1H-isoindol-5-yl}-3-hydroxypropyl]piperazin-1-yl}phenyl)-1H-pyrrolo[2,3-b]pyridine-3-carbonyl]-2,4-difluorophenyl}-3-fluoropyrrolidine-1-sulfonamide], the half-maximal degradation concentration (DC50) was in the range of 0.001 to 0.01 µM at BRAF G466V (setting [1]) and 0.05 to 0.5 µM at BRAF V600E (setting [3]). Besides, the Dmax on BRAF G466V (setting [2]) was above 70%; on BRAF V600E (setting [4]), 35 to 70%.
On to `COc1cc([C@H](O)CCN2CCN(c3ccc(-c4cnc5[nH]cc(C(=O)c6c(F)ccc(NS(=O)(=O)N7CC[C@@H](F)C7)c6F)c5c4)cc3)CC2)cc2c1C(=O)N([C@@H]1CCC(=O)NC1=O)C2` [Compound 187, (3R)-N-{3-[5-(4-{4-[(3R)-3-{2-[(3R)-2,6-dioxopiperidin-3-yl]-7-methoxy-1-oxo-2,3-dihydro-1H-isoindol-5-yl}-3-hydroxypropyl]piperazin-1-yl}phenyl)-1H-pyrrolo[2,3-b]pyridine-3-carbonyl]-2,4-difluorophenyl}-3-fluoropyrrolidine-1-sulfonamide], for which the 50% degradation concentration (DC50) on BRAF G466V (setting [1]) fell in the range of 0.001 to 0.01 µM; at BRAF V600E (setting [3]), 0.05 to 0.5 µM. The Dmax on BRAF G466V (setting [2]) is above 70%; on BRAF V600E (setting [4]), 35 to 70%.
`O=C1CCC(N2Cc3cc(C4CCN(C[C@H]5C[C@H]6CC[C@@H](C5)N6c5ccc(-c6cnc7[nH]cc(C(=O)c8c(F)ccc(NS(=O)(=O)N9CC[C@@H](F)C9)c8F)c7c6)cc5)CC4)ccc3C2=O)C(=O)N1` (stereo partly drawn) [Compound 188, (3R)-N-[3-(5-{4-[(1R,3R,5S)-3-({4-[2-(2,6-dioxopiperidin-3-yl)-1-oxo-2,3-dihydro-1H-isoindol-5-yl]piperidin-1-yl}methyl)-8-azabicyclo[3.2.1]octan-8-yl]phenyl}-1H-pyrrolo[2,3-b]pyridine-3-carbonyl)-2,4-difluorophenyl]-3-fluoropyrrolidine-1-sulfonamide]: the DC50 on BRAF G466V (setting [1]) fell in the range of 0.001 to 0.01 µM; at BRAF V600E (setting [3]), 0.005 to 0.05 µM. Moreover, the Dmax is above 70% at BRAF G466V (setting [2]) and 35 to 70% on BRAF V600E (setting [4]).
